Test results from patent publication US20110230472A1, “RING-FUSED AZOLE DERIVATIVE HAVING PI3K-INHIBITING ACTIVITY” (Shionogi & Co., Ltd., priority 2008, published 2011).

Biological target: PI-3 kinase γ (Homo sapiens, UniProt P48736)
Assay: PI3Kγ inhibitory activity, PI3-kinase HTRF assay (inhibition ratio)
Format: biochemical
Conditions: 0.5 h; PI3Kγ, compound at 50 μM
Method: The PI3Kγ inhibitory activity of a compound was evaluated using PI3-kinase HTRF™ assay (Millipore) according to the following procedure:
To each well of a testing plate, 5 μL of a compound solution containing 10% DMSO (200 μmol/L or 40 μmol/L as the concentration of the compound), 5 μL of a substrate solution (40 μmol/L phosphatidylinositol (4,5)-bisphosphate, 20 mmol/L MgCl2, 10 mmol/L DTT), and 5 μL of a enzyme solution (80 μg/mL PI-3 kinase γ, 10 mmol/L MgCl2, 5 mmol/L DTT) were added, and then allowed to stand for 10 minutes.
Then, 5 μL of a reaction solution (40 μmol/L ATP, 10 mmol/L MgCl2, 5 mmol/L DTT) was added thereto. After reacting for 30 minutes at room temperature, 5 μL of a solution containing EDTA and biotinylated phosphatidylinositol (3,4,5)-triphosphate were added to quench the reaction.
5 μL of a detection reagent containing a europium-labeled anti-GST antibody, the GST-tagged PH domain, and allophycocyanin-labeled streptavidin was added thereto. After 18 hours, HTRF (excitation wavelength: 330 nm, measured wavelengths: 620 nm and 665 nm) was measured.
HTRF ratio was defined as the value obtained by dividing the amount of fluorescence obtained at the measured wavelength 665 nm by the amount of fluorescence obtained at 620 nm. The HTRF ratio in the absence of a compound was defined as 100% activity and the HTRF ratio in the absence of PI-3 kinase γ was defined as 0% activity to calculate an inhibition ratio which was defined as the PI3Kγ inhibitory activity of a compound at 50 μmol/L or 10 μmol/L.

Sequence of PI-3 kinase γ (P48736 whole entry): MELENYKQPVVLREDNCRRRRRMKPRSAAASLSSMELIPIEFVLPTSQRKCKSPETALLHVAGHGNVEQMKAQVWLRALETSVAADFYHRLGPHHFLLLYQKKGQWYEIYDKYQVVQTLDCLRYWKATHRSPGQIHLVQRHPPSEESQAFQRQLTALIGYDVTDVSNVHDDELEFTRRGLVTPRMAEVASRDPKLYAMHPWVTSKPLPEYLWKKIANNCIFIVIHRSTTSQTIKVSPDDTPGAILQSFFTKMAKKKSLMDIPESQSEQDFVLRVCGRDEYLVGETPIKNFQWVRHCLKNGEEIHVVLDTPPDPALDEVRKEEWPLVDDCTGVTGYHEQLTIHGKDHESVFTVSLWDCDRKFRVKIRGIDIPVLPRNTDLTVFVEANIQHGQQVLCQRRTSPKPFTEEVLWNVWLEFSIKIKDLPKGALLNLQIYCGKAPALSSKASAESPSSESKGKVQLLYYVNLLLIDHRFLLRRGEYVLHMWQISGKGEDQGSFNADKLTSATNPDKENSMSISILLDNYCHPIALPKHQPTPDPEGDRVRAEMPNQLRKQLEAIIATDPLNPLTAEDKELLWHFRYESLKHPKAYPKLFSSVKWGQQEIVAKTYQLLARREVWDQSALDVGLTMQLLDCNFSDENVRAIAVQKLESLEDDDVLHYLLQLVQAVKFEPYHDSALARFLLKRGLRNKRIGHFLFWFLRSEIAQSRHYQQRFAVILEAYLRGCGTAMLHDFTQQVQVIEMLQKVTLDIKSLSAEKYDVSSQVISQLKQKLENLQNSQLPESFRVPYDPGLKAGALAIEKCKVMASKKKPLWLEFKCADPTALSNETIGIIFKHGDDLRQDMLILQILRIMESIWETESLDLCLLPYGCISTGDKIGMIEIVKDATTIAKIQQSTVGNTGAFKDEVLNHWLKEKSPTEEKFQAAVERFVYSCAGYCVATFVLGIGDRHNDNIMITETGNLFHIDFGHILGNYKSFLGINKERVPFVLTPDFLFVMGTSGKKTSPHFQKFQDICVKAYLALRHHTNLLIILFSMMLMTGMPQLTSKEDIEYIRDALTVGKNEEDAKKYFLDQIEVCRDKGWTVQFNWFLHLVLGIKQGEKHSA

CC(=O)Nc1cc2n(n1)CCN2C(=O)c1ccccc1 [Compound I-2]
inhibition at 50 µM: ≥ 95%

COc1ccc(Nc2cc3n(n2)CCN3C(=O)c2ccccc2)cc1 [Compound I-4]
inhibition at 50 µM: ≥ 95%

CNC(=O)Nc1cc2n(n1)CCN2C(=O)c1ccccc1 [Compound I-5]
inhibition at 50 µM: 89%

CC(=O)Nc1cc2n(C(=O)c3ccccc3)ccn2n1 [Compound I-6]
inhibition at 50 µM: 90%

CC(=O)Nc1cc2n(C(=O)OC(C)(C)C)ccn2n1 [Compound I-7]
inhibition at 50 µM: ≥ 95%

CNC(=O)Nc1cc2n(n1)CCN2C(=O)OC(C)(C)C [Compound I-8]
inhibition at 50 µM: ≥ 95%

CNC(=O)Nc1cc2n(n1)CCN2C(=O)c1ccc2c(c1)CCO2 [Compound I-35]
inhibition at 50 µM: 77%

CNC(=O)Nc1cc2n(n1)CCN2C(=O)c1nc2ccccc2s1 [Compound I-40]
inhibition at 50 µM: 73%

CNC(=O)Nc1cc2n(n1)CCN2c1ccccc1 [Compound I-50]
inhibition at 50 µM: ≥ 95%

CNC(=O)Nc1cc2n(n1)CCN2C(=O)Oc1ccccc1 [Compound I-51]
inhibition at 50 µM: 87%

CCOC(=O)CNC(=O)Nc1cc2n(n1)CCN2C(=O)OC(C)(C)C [Compound I-57]
inhibition at 50 µM: ≥ 95%

CC(C)(C)OC(=O)N1CCn2nc(NC(=O)NCC(=O)O)cc21 [Compound I-59]
inhibition at 50 µM: 94%

CNC(=O)Nc1cc2n(n1)CCN(c1cncc(OC)c1)C2 [Compound I-65]
inhibition at 50 µM: ≥ 95%

CNC(=O)Nc1nc2c(s1)CN(C(=O)OC(C)(C)C)CC2 [Compound I-66]
inhibition at 50 µM: 92%

CNC(=O)Nc1cc2n(n1)CCN2c1cccc(Cl)c1 [Compound I-67]
inhibition at 50 µM: ≥ 95%

CNC(=O)Nc1cc2n(n1)CCN2c1cncc(OC)c1 [Compound I-79]
inhibition at 50 µM: ≥ 95%

CNC(=O)Nc1cc2n(n1)CCN2c1cccnc1 [Compound I-80]
inhibition at 50 µM: ≥ 95%

CNC(=O)Nc1cc2n(n1)CCN(c1cccc(C(=O)OC)c1)C2 [Compound I-81]
inhibition at 50 µM: 75%

CCOC(=O)c1cccc(N2CCn3nc(NC(=O)NC)cc32)c1 [Compound I-83]
inhibition at 50 µM: ≥ 95%

CNC(=O)Nc1cc2n(n1)CCN2c1cccc(-c2cnco2)c1 [Compound I-84]
inhibition at 50 µM: ≥ 95%

CCOC(=O)c1ccc(N2CCn3nc(NC(=O)NC)cc32)cc1 [Compound I-85]
inhibition at 50 µM: ≥ 95%

CNC(=O)Nc1cc2n(n1)CCN(c1cccnc1)C2 [Compound I-86]
inhibition at 50 µM: 90%

CNC(=O)Nc1cc2n(n1)CCN2c1ccccn1 [Compound I-88]
inhibition at 50 µM: 85%

CNC(=O)Nc1cc2n(n1)CCN2c1cccc(C(=O)O)c1 [Compound I-91]
inhibition at 50 µM: ≥ 95%

CNC(=O)Nc1nc2c(s1)CN(c1nccc(OC)n1)CC2 [Compound I-93]
inhibition at 50 µM: 92%

CNC(=O)Nc1nc2c(s1)CN(c1ccnc(Cl)n1)CC2 [Compound I-94]
inhibition at 50 µM: ≥ 95%

CNC(=O)Nc1nc2c(s1)CN(c1nccc(C(F)(F)F)n1)CC2 [Compound I-95]
inhibition at 50 µM: 93%

CNC(=O)Nc1cc2n(n1)CCN2c1ccc(C(=O)O)cc1 [Compound I-97]
inhibition at 50 µM: ≥ 95%

CNC(=O)Nc1nc2c(s1)CN(c1cc(C(=O)OC)nc(Cl)n1)CC2 [Compound I-100]
inhibition at 50 µM: ≥ 95%

CNC(=O)Nc1nc2c(s1)CN(c1cc(C(=O)O)nc(Cl)n1)CC2 [Compound I-101]
inhibition at 50 µM: ≥ 95%

CNC(=O)Nc1cc2n(n1)CCN2c1ccc(Cl)cc1 [Compound I-102]
inhibition at 50 µM: ≥ 95%

CNC(=O)Nc1cc2n(n1)CCN2c1cccc(O)c1 [Compound I-105]
inhibition at 50 µM: ≥ 95%

CNC(=O)Nc1nc2c(s1)CN(c1cc(Cl)ncn1)CC2 [Compound I-106]
inhibition at 50 µM: ≥ 95%

CNC(=O)Nc1nc2c(s1)CN(c1cc(OC)nc(OC)n1)CC2 [Compound I-107]
inhibition at 50 µM: ≥ 95%

CNC(=O)Nc1nc2c(s1)CN(c1cc(C(N)=O)nc(Cl)n1)CC2 [Compound I-108]
inhibition at 50 µM: ≥ 95%

CNC(=O)Nc1nc2c(s1)CN(c1cc(C(=O)NC3CCCC3)nc(Cl)n1)CC2 [Compound I-110]
inhibition at 50 µM: ≥ 95%

CNC(=O)Nc1nc2c(s1)CN(c1cc(Cl)nc(Cl)n1)CC2 [Compound I-111]
inhibition at 50 µM: ≥ 95%

CNC(=O)Nc1cc2n(n1)CCN2c1ccc(OC)cc1 [Compound I-114]
inhibition at 50 µM: 83%

CNC(=O)Nc1cc2n(n1)CCN2c1nc2ccccc2s1 [Compound I-115]
inhibition at 50 µM: ≥ 95%

COC(=O)c1cc(N2CCc3nc(NC(C)=O)sc3C2)nc(Cl)n1 [Compound I-116]
inhibition at 50 µM: ≥ 95%

CC(C)(C)OC(=O)N1CCc2nc(NC(=O)Nc3cccc(Cl)c3)sc2C1 [Compound I-117]
inhibition at 50 µM: 76%

CNC(=O)Nc1nc2c(s1)CN(c1cc(C(=O)NC)nc(Cl)n1)CC2 [Compound I-119]
inhibition at 50 µM: ≥ 95%

CNC(=O)Nc1nc2c(s1)CN(c1cc(N)nc(Cl)n1)CC2 [Compound I-122]
inhibition at 50 µM: 76%

CNC(=O)Nc1nc2c(s1)CN(c1cncc(Cl)n1)CC2 [Compound I-123]
inhibition at 50 µM: ≥ 95%

COC(=O)c1cc(N2CCc3nc(NC(=O)c4cccc(Cl)c4)sc3C2)nc(Cl)n1 [Compound I-126]
inhibition at 50 µM: ≥ 95%

CNC(=O)Nc1cc2n(n1)CCN2c1cc(C(=O)OC)nc(Cl)n1 [Compound I-127]
inhibition at 50 µM: 79%

CNC(=O)Nc1nc2c(s1)CN(c1cc(Cl)nc(SC)n1)CC2 [Compound I-128]
inhibition at 50 µM: ≥ 95%

CCOC(=O)CNC(=O)Nc1cc2n(n1)CCN2c1ccccc1 [Compound I-129]
inhibition at 50 µM: 81%

CC(=O)Nc1cc2n(n1)CCN2C(=O)OC(C)(C)C [Compound I-130]
inhibition at 50 µM: ≥ 95%

O=C(O)CNC(=O)Nc1cc2n(n1)CCN2c1ccccc1 [Compound I-132]
inhibition at 50 µM: ≥ 95%

CNC(=O)Nc1cc2n(n1)CCN(c1cc(OC)nc(OC)n1)C2 [Compound I-133]
inhibition at 50 µM: ≥ 95%

O=C(Nc1cc2n(n1)CCN2c1ccccc1)c1ccccc1 [Compound I-135]
inhibition at 50 µM: ≥ 95%

Nc1cc(N2CCc3nc(NC(=O)c4cccc(Cl)c4)sc3C2)nc(Cl)n1 [Compound I-137]
inhibition at 50 µM: 87%

CNC(=O)Nc1nc2c(s1)CN(c1cc(Oc3ccccc3)nc(OC)n1)CC2 [Compound I-138]
inhibition at 50 µM: ≥ 95%

COc1cccc(N2CCn3nc(NC(C)=O)cc32)c1 [Compound I-139]
inhibition at 50 µM: ≥ 95%

CC(=O)Nc1cc2n(n1)CCN2c1ccccc1 [Compound I-140]
inhibition at 50 µM: ≥ 95%

CNC(=O)Nc1cc2n(n1)CCN2c1ccncc1 [Compound I-141]
inhibition at 50 µM: ≥ 95%

COc1cc(N2CCc3nc(NC(=O)NCCC(=O)OC(C)(C)C)sc3C2)nc(OC)n1 [Compound I-143]
inhibition at 50 µM: ≥ 95%

CNC(=O)Nc1cc2n(n1)CCN2c1ccc(C(=O)OC)c(OC)c1 [Compound I-144]
inhibition at 50 µM: ≥ 95%

CNC(=O)Nc1nc2c(s1)CN(c1cc(OC)nc(N)n1)CC2 [Compound I-145]
inhibition at 50 µM: ≥ 95%

CNC(=O)Nc1cc2n(n1)CCN2c1cc(Br)cc(C(=O)OC)c1 [Compound I-146]
inhibition at 50 µM: ≥ 95%

CNC(=O)Nc1nc2c(s1)CN(c1cc(Oc3ccccc3)nc(SC)n1)CC2 [Compound I-147]
inhibition at 50 µM: ≥ 95%

CNC(=O)Nc1cc2n(n1)CCN2c1ccc(C(=O)O)c(OC)c1 [Compound I-148]
inhibition at 50 µM: ≥ 95%

CNC(=O)Nc1cc2n(n1)CCN2c1cc(Br)cc(C(=O)O)c1 [Compound I-149]
inhibition at 50 µM: ≥ 95%

CNC(=O)Nc1nc2c(s1)CN(c1cc(Oc3ccccc3)nc(OC(C)(C)C)n1)CC2 [Compound I-150]
inhibition at 50 µM: ≥ 95%

CNC(=O)Nc1nc2c(s1)CN(c1cc(Oc3ccccc3)nc(O)n1)CC2 [Compound I-151]
inhibition at 50 µM: 80%

CNC(=O)Nc1cc2n(n1)CCN2c1cccc(CC(=O)OC(C)(C)C)c1 [Compound I-152]
inhibition at 50 µM: ≥ 95%

CNC(=O)Nc1cc2n(n1)CCN2c1cccc(CC(=O)O)c1 [Compound I-153]
inhibition at 50 µM: 74%

CNC(=O)Nc1cc2n(n1)CCN2c1cc(C(=O)OC)cc(-c2ccccc2)c1 [Compound I-161]
inhibition at 50 µM: ≥ 95%

CNC(=O)Nc1cc2n(n1)CCN2c1cc(Nc2ccccc2)cc(C(=O)OC)c1 [Compound I-162]
inhibition at 50 µM: ≥ 95%

CNC(=O)Nc1cc2n(n1)CCN2c1cc(C(=O)O)cc(-c2ccccc2)c1 [Compound I-163]
inhibition at 50 µM: ≥ 95%

CNC(=O)Nc1cc2n(n1)CCN2c1cccc(-c2cnc(C)o2)c1 [Compound I-164]
inhibition at 50 µM: ≥ 95%

CNC(=O)Nc1cc2n(n1)CCN2c1cccc(C(C)=O)c1 [Compound I-165]
inhibition at 50 µM: ≥ 95%

CNC(=O)Nc1cc2n(n1)CCN2c1cc(Nc2ccccc2)cc(C(=O)O)c1 [Compound I-166]
inhibition at 50 µM: ≥ 95%

CNC(=O)Nc1cc2n(n1)CCN2c1cc(Br)cc(C(=O)OC(C)(C)C)c1 [Compound I-167]
inhibition at 50 µM: 92%

CNC(=O)Nc1cc2n(n1)CCN2c1ccc(F)c(OC)c1 [Compound I-168]
inhibition at 50 µM: ≥ 95%

CNC(=O)Nc1cc2n(n1)CCN2c1ccc(C(=O)N(C)C)cc1 [Compound I-169]
inhibition at 50 µM: ≥ 95%

CNC(=O)Nc1nc2c(s1)CN(c1cc(C(=O)NCCO)nc(Cl)n1)CC2 [Compound I-170]
inhibition at 50 µM: ≥ 95%
